Measured values from US11357779B2 (G1 Therapeutics, Inc., priority 2018, dated 2022).
Like-named read-outs stand apart in the source and are kept apart here.

Experiment: Plasma concentration versus time of Compound I and metabolite Compound III in patients dosed QD or BID with Form B of Compound II plus fulvestrant
Format: in vivo, human
Settings: human, plasma, oral; for concentration at 8 h: Day 1, 8.0 h; for concentration at 10 h: Day 1, 10.0 h; for concentration at 12 h: Day 1, 12.0 h; for concentration at 8 day: Day 8; for concentration at 15 day: Day 15; for concentration at 22 day: Day 22
Excerpt: Patients were enrolled into 1 of 2 parallel, independently operating, dose-escalation dosing cohorts with Form B of Compound II administered continuously either once daily (QD) or twice daily (BID) with food with fixed-dose fulvestrant (intramuscularly every 14 days for the first three injections and then every 28 days). Pre- or perimenopausal patients also received goserelin for the duration of study treatment. A […] agonist was started at least 28 days before the first dose of Form B, and those patients who were taking another LHRH agonist were switched to goserelin on Day 1. Patients were split into […] cohorts providing once a day (QD) dosing of 200 mg, 300 mg, 400 mg, 500 mg, or 650 mg of Form B, or twice a day (BID) dosing of 100 mg, 150 mg, or 200 mg of Form B. The second dose in BID cohorts was not administered in the evening until at least 12 hours after the initial morning dose of Form B. The dosing cohorts for Form B of Compound II are provided in Table 1.
Blood samples were collected at the following time points relative to the morning dose of Form B at Day 1 and at Day 29: pre-dose (0 hour) and 1, 2, 3, 4, 6, 8, 10, 12 (prior to the evening dose in the BID cohorts), and 24 (prior to the next day's morning dose) hours after dosing. A 5-minute time window was allowed for samples collected between the predose and 3 hours after Form B dosing. A 15-minute window was allowed for samples collected between 4 to 12 hours after Form B dosing. A 1-hour window was allowed for the sample collected 24 hours after Form B dosing. Blood samples for Compound I PK trough levels were collected pre-dose at Day 8, Day 15, and Day 22 prior to the morning administration of Compound I. Plasma concentrations of Compound I and its metabolite, Compound III, were measured using validated methods.
Analysis of plasma concentration versus time data for calculation of standard pharmacokinetic (PK) parameters following oral administration was conducted using Phoenix WinNonlin version 6.3 using actual blood sampling times.

[1] = 100 mg, 100 mg BID of Form B, Mean, read-out: Compound III Concentration
[2] = 100 mg, 100 mg BID of Form B, Median, read-out: Compound III Concentration
[3] = 100 mg, Cohort 6, 100 mg BID of Form B, read-out: Trough Compound III Concentration, Median
[4] = 100 mg, Cohort 6, 100 mg BID of Form B, read-out: Trough Compound III Concentration, Min
[5] = 400 mg, Cohort 3, 400 mg QD of Form B, read-out: Trough Compound III Concentration, Max
[6] = 400 mg, Cohort 3, 400 mg QD of Form B, read-out: Trough Compound III Concentration, Mean
[7] = 400 mg, Cohort 3, 400 mg QD of Form B, read-out: Trough Compound III Concentration, Median
[8] = 500 mg, Cohort 4, 500 mg QD of Form B, read-out: Trough Compound III Concentration, Max
[9] = 500 mg, Cohort 4, 500 mg QD of Form B, read-out: Trough Compound III Concentration, Mean
[10] = 500 mg, Cohort 4, 500 mg QD of Form B, read-out: Trough Compound III Concentration, Median
[11] = 500 mg, Cohort 4, 500 mg QD of Form B, read-out: Trough Compound III Concentration, Min

- concentration at 0 h (100 mg, 100 mg BID of Form B, Day 1, 0.0 h, Mean, read-out: Compound III Concentration): 0 ng/mL
- concentration at 0 h (100 mg, 100 mg BID of Form B, Day 1, 0.0 h, Median, read-out: Compound III Concentration): 0 ng/mL
- concentration at 1 h (100 mg, 100 mg BID of Form B, Day 1, 1.0 h, Mean, read-out: Compound III Concentration): 0.248 ng/mL
- concentration at 1 h (100 mg, 100 mg BID of Form B, Day 1, 1.0 h, Median, read-out: Compound III Concentration): 0 ng/mL
- concentration at 2 h (100 mg, 100 mg BID of Form B, Day 1, 2.0 h, Mean, read-out: Compound III Concentration): 1.04 ng/mL
- concentration at 2 h (100 mg, 100 mg BID of Form B, Day 1, 2.0 h, Median, read-out: Compound III Concentration): 1 ng/mL
- concentration at 3 h (100 mg, 100 mg BID of Form B, Day 1, 3.0 h, Mean, read-out: Compound III Concentration): 1.41 ng/mL
- concentration at 3 h (100 mg, 100 mg BID of Form B, Day 1, 3.0 h, Median, read-out: Compound III Concentration): 1.42 ng/mL
- concentration at 4 h (100 mg, 100 mg BID of Form B, Day 1, 4.0 h, Mean, read-out: Compound III Concentration): 1.25 ng/mL
- concentration at 4 h (100 mg, 100 mg BID of Form B, Day 1, 4.0 h, Median, read-out: Compound III Concentration): 1.13 ng/mL
- concentration at 6 h (100 mg, 100 mg BID of Form B, Day 1, 6.0 h, Mean, read-out: Compound III Concentration): 0.471 ng/mL
- concentration at 6 h (100 mg, 100 mg BID of Form B, Day 1, 6.0 h, Median, read-out: Compound III Concentration): 0.382 ng/mL
- concentration at 8 h [1]: 0.219 ng/mL
- concentration at 8 h [2]: 0 ng/mL
- concentration at 10 h [1]: 0 µg/mL
- concentration at 10 h [2]: 0 µg/mL
- concentration at 12 h [1]: 0.0917 ng/mL
- concentration at 12 h [2]: 0 ng/mL
- concentration at 8 day [3]: 0.481 ng/mL
- concentration at 8 day [4]: 0 ng/mL
- concentration at 15 day [3]: 0.895 ng/mL
- concentration at 15 day [4]: 0 ng/mL
- concentration at 22 day [3]: 0.403 ng/mL
- concentration at 22 day [4]: 0 ng/mL
- concentration at 0 h (150 mg, 150 mg BID of Form B, Day 1, 0.0 h, Median, read-out: Compound III Concentration): 0 ng/mL
- concentration at 1 h (150 mg, 150 mg BID of Form B, Day 1, 1.0 h, Median, read-out: Compound III Concentration): 1.52 ng/mL
- concentration at 8 day [5]: 0.702 ng/mL
- concentration at 8 day [6]: 0.406 ng/mL
- concentration at 8 day [7]: 0.515 ng/mL
- concentration at 15 day [5]: 0.665 ng/mL
- concentration at 15 day [6]: 0.435 ng/mL
- concentration at 15 day [7]: 0.64 ng/mL
- concentration at 22 day [5]: 0.935 ng/mL
- concentration at 22 day [6]: 0.729 ng/mL
- concentration at 22 day [7]: 0.736 ng/mL
- concentration at 22 day (400 mg, Cohort 3, 400 mg QD of Form B, read-out: Trough Compound III Concentration, Min): 0.515 ng/mL
- concentration at 8 day [8]: 1.98 ng/mL
- concentration at 8 day [9]: 1.71 ng/mL
- concentration at 8 day [10]: 1.62 ng/mL
- concentration at 8 day [11]: 1.53 ng/mL
- concentration at 15 day [8]: 2.66 ng/mL
- concentration at 15 day [9]: 2.07 ng/mL
- concentration at 15 day [10]: 2.15 ng/mL
- concentration at 15 day [11]: 1.33 ng/mL
- concentration at 22 day [8]: 2.11 ng/mL
- concentration at 22 day [9]: 1.73 ng/mL
- concentration at 22 day [10]: 1.58 ng/mL
- concentration at 22 day [11]: 1.5 ng/mL
- concentration at 0 h (500 mg, Cohort 4, 500 mg QD of Form B, Day 29, 0.0 h, read-out: Compound III Concentration, Mean): 1.76 ng/mL
- concentration at 0 h (500 mg, Cohort 4, 500 mg QD of Form B, Day 29, 0.0 h, read-out: Compound III Concentration, Min): 1.41 ng/mL
- concentration at 1 h (500 mg, Cohort 4, 500 mg QD of Form B, Day 29, 1.0 h, read-out: Compound III Concentration, Mean): 2.98 ng/mL
- concentration at 1 h (500 mg, Cohort 4, 500 mg QD of Form B, Day 29, 1.0 h, read-out: Compound III Concentration, Min): 2.06 ng/mL
- concentration at 2 h (500 mg, Cohort 4, 500 mg QD of Form B, Day 29, 2.0 h, read-out: Compound III Concentration, Mean): 4.39 ng/mL
- concentration at 2 h (500 mg, Cohort 4, 500 mg QD of Form B, Day 29, 2.0 h, read-out: Compound III Concentration, Min): 3.61 ng/mL
- concentration at 3 h (500 mg, Cohort 4, 500 mg QD of Form B, Day 29, 3.0 h, read-out: Compound III Concentration, Mean): 5.9 ng/mL
- concentration at 3 h (500 mg, Cohort 4, 500 mg QD of Form B, Day 29, 3.0 h, read-out: Compound III Concentration, Min): 4.66 ng/mL
- concentration at 4 h (500 mg, Cohort 4, 500 mg QD of Form B, Day 29, 4.0 h, read-out: Compound III Concentration, Mean): 5.77 ng/mL
- concentration at 4 h (500 mg, Cohort 4, 500 mg QD of Form B, Day 29, 4.0 h, read-out: Compound III Concentration, Min): 4.04 ng/mL
- concentration at 6 h (500 mg, Cohort 4, 500 mg QD of Form B, Day 29, 6.0 h, read-out: Compound III Concentration, Mean): 4.18 ng/mL
- concentration at 6 h (500 mg, Cohort 4, 500 mg QD of Form B, Day 29, 6.0 h, read-out: Compound III Concentration, Min): 3.55 ng/mL
Structure (SMILES): O=C1NCC2(CCCCC2)n2c1cc1cnc(Nc3ccc(N4CCNCC4)cn3)nc12 [Compound III, 2′-((5-(piperazin-1-yl)pyridin-2-yl)amino)-7′,8′-dihydro-6′H-spiro[cyclohexane-1,9′-pyrazino[1′,2′:1,5]pyrrolo[2,3-d]pyrimidin]-6′-one]
